{"source": "paper PMC7615677", "about": "(Science translational medicine, 2023)", "key": {"[1]": {"system": "Leishmania", "test": "Activity of synthesized metabolites against Leishmania", "type": "cell-based"}, "[2]": {"system": "T. cruzi", "set-up": "method as in PMID 25740547", "conditions": "cited from earlier work"}, "[3]": {"system": "L. donovani intracellular amastigote stage", "set-up": "method as in PMID 25740547", "conditions": "intracellular amastigote stage of L. donovani; cited from earlier work"}, "[4]": {"system": "L. infantum", "test": "Promastigote back-transformation assay on organs of treated hamsters", "type": "in vivo, golden hamsters", "description": "Female golden hamsters (5 per treatment group) were infected through intracardiac administration of 2x10^7 L. infantum amastigotes obtained from the spleen of a heavily infected donor hamster. […] After 5-day treatment period, followed by a 10-day wash out period, animals were sacrificed, and parasites burden assessed in the three target organs (liver, spleen, and bone-marrow). For this assessment, organs of individual animals were weighed, except for bone-marrow thus only providing a semi-quantitative evaluation only. Impression smears were Giemsa-stained for microscopic evaluation of amastigote burden, expressed as LDU (= mean number of amastigotes/cell × organ weight in mg) and the results were expressed as a percentage reduction compared to the burdens in the control group (vehicle as placebo). For evaluating the presence of viable residual burden after treatment, a promastigote back-transformation assay was conducted. This consisted of the incubation at ambient temperature of aseptically collected pieces of spleen or liver tissue in 1 mL of promastigote back-transformation medium in 24-well plates. For the bone-marrow, resected femurs were flushed with 1 mL medium. The medium consists of HOMEM pH 6.0 prepared as described elsewhere ([5]) with 10% fetal bovine serum (Gibco), 2.5% penicillin/streptomycin and 1% gentamicin (Merck). A qualitative assessment of the presence of promastigotes was made after 3 and 5 days of incubation and a score was attributed (+, ++ or +++) based on parasite density in the positive wells.\nSupplementary Materials and methods\nPromastigote transformation assay\nFor evaluating the presence of viable residual burdens after treatment, a promastigote back-transformation assay is conducted. This test consists of the incubation at ambient temperature of aseptically collected pieces of spleen or liver tissue in 1 mL of promastigote back-transformation medium in 24-well plates. For the bone-marrow, resected femurs are flushed with 1 mL medium. The medium consists of HOMEM pH 6.0 prepared as described elsewhere (1) with 10% fetal bovine serum (Gibco) and 2.5% penicillin/streptomycin and 1% gentamicin (Merck). A qualitative assessment of the presence of promastigotes is made after 3 and 5 days of incubation and a score is attributed (+, ++ or +++) based on parasite density in the positive […]\nSupplementary Information on Tables\nL. infantum MHOM/FR/96/LEM3323 Cl4 was originally obtained from a French HIV-positive patient (Languedoc area in Southern France) and provided by Dr. Laurence Lachaud of the Centre National de Référence des Leishmanioses (CNRL), Montpellier, France. The miltefosine and paromomycin resistant lines (LEM3323 Cl4 MIL-R and PMM-R) were obtained by successive in vitro selection cycles on intracellular amastigotes (2, 3)"}, "[5]": {"conditions": "40 mg/kg qd, 5 days, individual animals 1-10"}}, "note": "“And” between values parts separate entries of the source, which are not always exact repeats. Identical values can stand only once.", "data": [{"smiles": "Cc1[nH]c2nc(N)nc(C)c2c1-c1ccc(C#N)c(O)c1O", "note": "[DNDI0003578765]", "values": [{"measurement": "activity against Leishmania, in words", "setting": "[1]", "result": "inactive"}]}, {"smiles": "Cc1nc(N)nc2[nH]c(CO)c(-c3ccc(C#N)c4c3OCO4)c12", "note": "[DNDI0003671146]", "values": [{"measurement": "activity against Leishmania, in words", "setting": "[1]", "result": "inactive"}]}, {"smiles": "COc1ccccc1-c1c(C)[nH]c2nc(N)nc(C)c12", "note": "[TCMDC-143610]", "values": [{"measurement": "EC50", "setting": "[2]", "result": 0.13, "unit": "µM"}, {"measurement": "EC50", "setting": "[3]", "result": 15.8, "unit": "µM"}]}, {"smiles": "CCCCCCCCCCCCCCCCOP(=O)([O-])OCC[N+](C)(C)C", "note": "[miltefosine, reference compound]", "values": [{"measurement": "emergence of viable promastigotes from recovered organs, in words", "setting": "[4]; 40 mg/kg", "result": "more than half of those following miltefosine administration at 40 mg/kg were positive"}, {"measurement": "parasite score, Bone-marrow", "setting": "[4]; [5]", "result": "++ (4×) and + (4×) and - (2×)"}, {"measurement": "parasite score, Liver", "setting": "[4]; [5]", "result": "+ (3×) and - (7×)"}, {"measurement": "parasite score, Spleen", "setting": "[4]; [5]", "result": "+ (5×) and ++ (4×) and -"}]}]}
